Experimental data published in ChEMBL document CHEMBL4219036, “Design and multi-step synthesis of chalcone-polyamine conjugates as potent antiproliferative agents” (Bioorg Med Chem Lett, 2017).

What was measured:
HT-29 = assay: Antiproliferative activity against human HT-29 cells after 48 hrs by MTT assay; type: functional, cell-based; details: HT-29, 48 h
PC-3 = assay: Antiproliferative activity against human PC3 cells after 48 hrs by MTT assay; type: functional, cell-based; details: PC-3, 48 h
HCT-116 = assay: Antiproliferative activity against human HCT116 cells after 48 hrs by MTT assay; type: functional, cell-based; details: HCT-116, 48 h
DU-145 = assay: Antiproliferative activity against human DU145 cells after 48 hrs by MTT assay; type: functional, cell-based; details: DU-145, 48 h
[1] = 1-octanol/water partition coefficient, log P of the compound at 300 uM by UV-Vis spectrophotometric analysis; type: physicochemical

SMILES | IC50 (HT-29) [µM] | IC50 (PC-3) [µM] | IC50 (HCT-116) [µM] | IC50 (DU-145) [µM] | logP at 300 µM [1]
COc1ccc(/C=C/C(=O)c2cc(OC)c(OC)c(OC)c2)cc1OCCCC(=O)NCCCNCCCCN | > 100 | 81 | > 100 | > 100 | –
COc1cc(C(=O)/C=C/c2ccc(OCCCC(=O)NCCCCN(CCCN)CCCCNCCCN)cc2)cc(OC)c1OC | 91.7 | 81.6 | 75.4 | 92.5 | –
COc1cc(C(=O)/C=C/c2ccc(OCCCC(=O)NCCCCN(CCCN)CCCCN)cc2)cc(OC)c1OC | 87.2 | 55.4 | 29.2 | 86.8 | –
COc1cc(C(=O)/C=C/c2ccc(OCCCC(=O)NCCCNCCCCN)cc2)cc(OC)c1OC | > 100 | > 100 | > 100 | > 100 | -1.43
COc1cc(C(=O)/C=C/c2ccc(OCCCC(=O)NCCCNCCCCNCCN)cc2)cc(OC)c1OC | 98 | 34 | 33.8 | 35.4 | -1.98
COc1ccc(/C=C/C(=O)c2cc(OC)c(OC)c(OC)c2)cc1OCCCC(=O)NCCCCN(CCCN)CCCCN | 74.7 | 60.6 | 73.6 | 82.3 | –
COc1ccc(/C=C/C(=O)c2cc(OC)c(OC)c(OC)c2)cc1OCCCC(=O)NCCCNCCCCNCCN | > 100 | 31.8 | 55.8 | 28.5 | -1.57
COc1cc(C(=O)/C=C/c2ccc(OCCCC(=O)NCCCCNCCCN)cc2)cc(OC)c1OC | > 100 | 79.3 | 20 | 54.8 | –
COc1ccc(/C=C/C(=O)c2cc(OC)c(OC)c(OC)c2)cc1 | 7.4 | 7.8 | 10.7 | 13.8 | 3.1
COc1ccc(/C=C/C(=O)c2cc(OC)c(OC)c(OC)c2)cc1O | 23.1 | 0.09 | 0.85 | 6.3 | 2.99
COc1ccc(/C=C/C(=O)c2cc(OC)c(OC)c(OC)c2)cc1OCCCC(=O)NCCCCNCCCN | > 100 | 51 | 38 | 99.3 | -1.28
COc1ccc(/C=C/C(=O)c2cc(OC)c(OC)c(OC)c2)cc1OCCCC(=O)NCCCCN(CCCN)CCCCNCCCN | 89.1 | 48.1 | 29.5 | 84.9 | –
